Measured values as given in ChEMBL document CHEMBL3137667, “[Drug-induced liver injury; fourteenth updated edition of the bibliographic database of liver injuries and related drugs]” (Gastroenterol Clin Biol, 2004).

What was measured:
[1] = human
[2] = human, serum
[3] = human, serum, 4383 h
[4] = human; remark: listed apart in the source
[5] = Highest frequency of moderate liver toxicity observed during clinical trials, expressed as a percentage. [column '% BIOL' in source]; conditions: human
[6] = human; remark: listed apart in the source
[7] = human; remark: listed apart in the source
[8] = human, serum; remark: listed apart in the source
[9] = human; remark: listed apart in the source
[10] = human; remark: listed apart in the source
[11] = Highest frequency of acute liver toxicity observed during clinical trials, expressed as a percentage. [column '% AIGUE' in source]; conditions: human
[12] = human; remark: listed apart in the source
[13] = human; remark: listed apart in the source
[14] = human; remark: listed apart in the source
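Wherever Hepatotoxicity (association with vascular disease) is given: count of indexed literature references reporting vascular liver injury in humans, e.g. peliosis hepatitis, hepatic veno-occlusive disease or Budd-Chiari syndrome.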
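Wherever Hepatotoxicity (benign tumour) is given: value is a count of indexed literature references citing a benign tumour confirmed by histopathology.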
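Wherever Hepatotoxicity (choleostasis) is given: human cholestatic liver injury, shown by histopathology or by peak ALT or AST elevation over alkaline phosphatase ratio below 2, value counts indexed literature reports.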
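Wherever Hepatotoxicity (chronic liver disease) is given: chronic liver injury confirmed by histopathology or persistently raised serum aminotransferase activity beyond 6 months, value given as the count of indexed literature references.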
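Wherever Hepatotoxicity (cirrhosis) is given: value is a count of indexed literature references reporting cirrhosis confirmed by histopathology.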
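Wherever Hepatotoxicity (cytolytic) is given: human cytolytic liver injury, shown by histopathology or by a ratio above 5 of peak ALT or AST elevation to alkaline phosphatase elevation, value counts indexed references.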
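Wherever Hepatotoxicity (granulomatous hepatitis) is given: value is a count of indexed literature references reporting granulomatous liver disease confirmed by histopathology.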
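Wherever Hepatotoxicity (malignant tumour) is given: malignant tumour confirmed by histopathology, value gives the count of indexed literature references reporting it.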
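Wherever Hepatotoxicity (severe hepatitis) is given: human clinical data: severe hepatitis, meaning potentially life-threatening liver failure or clinically observed cases, the value counts how many indexed literature references report it.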
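Wherever Hepatotoxicity (steatosis) is given: steatosis confirmed by histopathology, value is the count of indexed references.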

## [H]/N=C(\N/C(=N/[H])NCCCCCCNC(=N)NC(=N)Nc1ccc(Cl)cc1)Nc1ccc(Cl)cc1 [CHLORHEXIDINE]
[1]
  Hepatotoxicity (cirrhosis): 0
[2]
  Hepatotoxicity (moderate): 0
[3]
  Hepatotoxicity (chronic liver disease): 0
[4]
  Hepatotoxicity (severe hepatitis): 0
[5]
  Hepatotoxicity (moderate): 0%
[6]
  Hepatotoxicity (malignant tumour): 0
[7]
  Hepatotoxicity (choleostasis): 0
[8]
  Hepatotoxicity (acute): 1
[9]
  Hepatotoxicity (association with vascular disease): 0
[10]
  Hepatotoxicity (benign tumour): 0
[11]
  Hepatotoxicity (acute): 0%
[12]
  Hepatotoxicity (granulomatous hepatitis): 0
[13]
  Hepatotoxicity (steatosis): 0
[14]
  Hepatotoxicity (cytolytic): 0

## NS(=O)(=O)c1cc(C2(O)NC(=O)c3ccccc32)ccc1Cl (centres undefined) [CHLORTHALIDONE]
[1]
  Hepatotoxicity (cirrhosis): 0
[2]
  Hepatotoxicity (moderate): 0
[3]
  Hepatotoxicity (chronic liver disease): 0
[4]
  Hepatotoxicity (severe hepatitis): 0
[5]
  Hepatotoxicity (moderate): 0%
[6]
  Hepatotoxicity (malignant tumour): 0
[7]
  Hepatotoxicity (choleostasis): 0
[8]
  Hepatotoxicity (acute): 2
[9]
  Hepatotoxicity (association with vascular disease): 0
[10]
  Hepatotoxicity (benign tumour): 0
[11]
  Hepatotoxicity (acute): 0%
[12]
  Hepatotoxicity (granulomatous hepatitis): 0
[13]
  Hepatotoxicity (steatosis): 0
[14]
  Hepatotoxicity (cytolytic): 0

## CN1CCC[C@@H]1CCO[C@](C)(c1ccccc1)c1ccc(Cl)cc1 [CLEMASTINE]
[1]
  Hepatotoxicity (cirrhosis): 0
[2]
  Hepatotoxicity (moderate): 1
[3]
  Hepatotoxicity (chronic liver disease): 0
[4]
  Hepatotoxicity (severe hepatitis): 0
[5]
  Hepatotoxicity (moderate): 0.7%
[6]
  Hepatotoxicity (malignant tumour): 0
[7]
  Hepatotoxicity (choleostasis): 0
[8]
  Hepatotoxicity (acute): 0
[9]
  Hepatotoxicity (association with vascular disease): 0
[10]
  Hepatotoxicity (benign tumour): 0
[11]
  Hepatotoxicity (acute): 0%
[12]
  Hepatotoxicity (granulomatous hepatitis): 0
[13]
  Hepatotoxicity (steatosis): 0
[14]
  Hepatotoxicity (cytolytic): 0

## COc1ccc([C@@H]2Sc3cc(Cl)ccc3N(CCN(C)C)C(=O)[C@@H]2OC(C)=O)cc1 [CLENTIAZEM]
[1]
  Hepatotoxicity (cirrhosis): 0
[2]
  Hepatotoxicity (moderate): 1
[3]
  Hepatotoxicity (chronic liver disease): 0
[4]
  Hepatotoxicity (severe hepatitis): 0
[5]
  Hepatotoxicity (moderate): 3.7%
[6]
  Hepatotoxicity (malignant tumour): 0
[7]
  Hepatotoxicity (choleostasis): 0
[8]
  Hepatotoxicity (acute): 0
[9]
  Hepatotoxicity (association with vascular disease): 0
[10]
  Hepatotoxicity (benign tumour): 0
[11]
  Hepatotoxicity (acute): 0%
[12]
  Hepatotoxicity (granulomatous hepatitis): 0
[13]
  Hepatotoxicity (steatosis): 0
[14]
  Hepatotoxicity (cytolytic): 0

## CN(C)C(=O)CCCOC(=O)C(C)(C)Oc1ccc(Cl)cc1 [CLOFIBRIDE]
[1]
  Hepatotoxicity (cirrhosis): 0
[2]
  Hepatotoxicity (moderate): 1
[3]
  Hepatotoxicity (chronic liver disease): 0
[4]
  Hepatotoxicity (severe hepatitis): 0
[5]
  Hepatotoxicity (moderate): 0%
[6]
  Hepatotoxicity (malignant tumour): 0
[7]
  Hepatotoxicity (choleostasis): 0
[8]
  Hepatotoxicity (acute): 0
[9]
  Hepatotoxicity (association with vascular disease): 0
[10]
  Hepatotoxicity (benign tumour): 0
[11]
  Hepatotoxicity (acute): 0%
[12]
  Hepatotoxicity (granulomatous hepatitis): 0
[13]
  Hepatotoxicity (steatosis): 0
[14]
  Hepatotoxicity (cytolytic): 0

## Clc1cccc(Cl)c1N=C1NCCN1 [CLONIDINE]
[1]
  Hepatotoxicity (cirrhosis): 0
[2]
  Hepatotoxicity (moderate): 1
[3]
  Hepatotoxicity (chronic liver disease): 0
[4]; Liver
  Hepatotoxicity (severe hepatitis): 0
[5]; Liver
  Hepatotoxicity (moderate): 12.5%
[6]
  Hepatotoxicity (malignant tumour): 0
[7]; Liver
  Hepatotoxicity (choleostasis): 0
[8]
  Hepatotoxicity (acute): 0
[9]
  Hepatotoxicity (association with vascular disease): 0
[10]
  Hepatotoxicity (benign tumour): 0
[11]; Liver
  Hepatotoxicity (acute): 0%
[12]; Liver
  Hepatotoxicity (granulomatous hepatitis): 0
[13]
  Hepatotoxicity (steatosis): 0
[14]; Liver
  Hepatotoxicity (cytolytic): 0

## CN(C)CCC=C1c2ccccc2C=Cc2ccccc21 [CYCLOBENZAPRINE]
[1]
  Hepatotoxicity (cirrhosis): 0
[2]
  Hepatotoxicity (moderate): 1
[3]
  Hepatotoxicity (chronic liver disease): 0
[4]; Liver
  Hepatotoxicity (severe hepatitis): 0
[5]; Liver
  Hepatotoxicity (moderate): 0%
[6]
  Hepatotoxicity (malignant tumour): 0
[7]; Liver
  Hepatotoxicity (choleostasis): 0
[8]
  Hepatotoxicity (acute): 1
[9]
  Hepatotoxicity (association with vascular disease): 0
[10]
  Hepatotoxicity (benign tumour): 0
[11]; Liver
  Hepatotoxicity (acute): 0%
[12]; Liver
  Hepatotoxicity (granulomatous hepatitis): 0
[13]
  Hepatotoxicity (steatosis): 0
[14]; Liver
  Hepatotoxicity (cytolytic): 0

## NS(=O)(=O)c1cc2c(cc1Cl)NC(CC1CCCC1)NS2(=O)=O (centres undefined) [CYCLOPENTHIAZIDE]
[1]
  Hepatotoxicity (cirrhosis): 0
[2]
  Hepatotoxicity (moderate): 1
[3]
  Hepatotoxicity (chronic liver disease): 0
[4]
  Hepatotoxicity (severe hepatitis): 0
[5]
  Hepatotoxicity (moderate): 0%
[6]
  Hepatotoxicity (malignant tumour): 0
[7]
  Hepatotoxicity (choleostasis): 0
[8]
  Hepatotoxicity (acute): 1
[9]
  Hepatotoxicity (association with vascular disease): 0
[10]
  Hepatotoxicity (benign tumour): 0
[11]
  Hepatotoxicity (acute): 0%
[12]
  Hepatotoxicity (granulomatous hepatitis): 0
[13]
  Hepatotoxicity (steatosis): 0
[14]
  Hepatotoxicity (cytolytic): 0

## CCC1=C(C[C@H]2NCCc3cc(OC)c(OC)cc32)C[C@H]2c3cc(OC)c(OC)cc3CCN2C1 [DEHYDROEMETINE]
[1]
  Hepatotoxicity (cirrhosis): 0
[2]
  Hepatotoxicity (moderate): 1
[3]
  Hepatotoxicity (chronic liver disease): 0
[4]
  Hepatotoxicity (severe hepatitis): 0
[5]
  Hepatotoxicity (moderate): 0%
[6]
  Hepatotoxicity (malignant tumour): 0
[7]
  Hepatotoxicity (choleostasis): 0
[8]
  Hepatotoxicity (acute): 0
[9]
  Hepatotoxicity (association with vascular disease): 0
[10]
  Hepatotoxicity (benign tumour): 0
[11]
  Hepatotoxicity (acute): 0%
[12]
  Hepatotoxicity (granulomatous hepatitis): 0
[13]
  Hepatotoxicity (steatosis): 0
[14]
  Hepatotoxicity (cytolytic): 0

## CC(C)Nc1cccnc1N1CCN(C(=O)c2cc3cc(NS(C)(=O)=O)ccc3[nH]2)CC1 [DELAVIRDINE]
[1]
  Hepatotoxicity (cirrhosis): 0
[2]
  Hepatotoxicity (moderate): 2
[3]
  Hepatotoxicity (chronic liver disease): 0
[4]
  Hepatotoxicity (severe hepatitis): 0
[5]
  Hepatotoxicity (moderate): 7.1%
[6]
  Hepatotoxicity (malignant tumour): 0
[7]
  Hepatotoxicity (choleostasis): 0
[8]
  Hepatotoxicity (acute): 0
[9]
  Hepatotoxicity (association with vascular disease): 0
[10]
  Hepatotoxicity (benign tumour): 0
[11]
  Hepatotoxicity (acute): 0%
[12]
  Hepatotoxicity (granulomatous hepatitis): 0
[13]
  Hepatotoxicity (steatosis): 0
[14]
  Hepatotoxicity (cytolytic): 0

## Nc1ncc2ncn(COCCO)c2n1 [DESCICLOVIR]
[1]
  Hepatotoxicity (cirrhosis): 0
[2]
  Hepatotoxicity (moderate): 1
[3]
  Hepatotoxicity (chronic liver disease): 0
[4]
  Hepatotoxicity (severe hepatitis): 0
[5]
  Hepatotoxicity (moderate): 15.4%
[6]
  Hepatotoxicity (malignant tumour): 0
[7]
  Hepatotoxicity (choleostasis): 0
[8]
  Hepatotoxicity (acute): 0
[9]
  Hepatotoxicity (association with vascular disease): 0
[10]
  Hepatotoxicity (benign tumour): 0
[11]
  Hepatotoxicity (acute): 0%
[12]
  Hepatotoxicity (granulomatous hepatitis): 0
[13]
  Hepatotoxicity (steatosis): 0
[14]
  Hepatotoxicity (cytolytic): 0

## CCOC(OCC)C(=O)OCC(=O)[C@]1(O)Cc2c(O)c3c(c(O)c2[C@@H](O[C@H]2C[C@H](N)[C@H](O)[C@H](C)O2)C1)C(=O)c1c(OC)cccc1C3=O [DETORUBICIN]
[1]
  Hepatotoxicity (cirrhosis): 0
[2]
  Hepatotoxicity (moderate): 2
[3]
  Hepatotoxicity (chronic liver disease): 0
[4]
  Hepatotoxicity (severe hepatitis): 0
[5]
  Hepatotoxicity (moderate): 9.4%
[6]
  Hepatotoxicity (malignant tumour): 0
[7]
  Hepatotoxicity (choleostasis): 0
[8]
  Hepatotoxicity (acute): 0
[9]
  Hepatotoxicity (association with vascular disease): 0
[10]
  Hepatotoxicity (benign tumour): 0
[11]
  Hepatotoxicity (acute): 0%
[12]
  Hepatotoxicity (granulomatous hepatitis): 0
[13]
  Hepatotoxicity (steatosis): 0
[14]
  Hepatotoxicity (cytolytic): 0

## N[C@H](Cc1cc(I)c(Oc2cc(I)c(O)c(I)c2)c(I)c1)C(=O)O [DEXTROTHYROXINE]
[1]
  Hepatotoxicity (cirrhosis): 0
[2]
  Hepatotoxicity (moderate): 1
[3]
  Hepatotoxicity (chronic liver disease): 0
[4]
  Hepatotoxicity (severe hepatitis): 0
[5]
  Hepatotoxicity (moderate): 40.2%
[6]
  Hepatotoxicity (malignant tumour): 0
[7]
  Hepatotoxicity (choleostasis): 0
[8]
  Hepatotoxicity (acute): 0
[9]
  Hepatotoxicity (association with vascular disease): 0
[10]
  Hepatotoxicity (benign tumour): 0
[11]
  Hepatotoxicity (acute): 0%
[12]
  Hepatotoxicity (granulomatous hepatitis): 0
[13]
  Hepatotoxicity (steatosis): 0
[14]
  Hepatotoxicity (cytolytic): 0

## CC(=O)Nc1c(I)c(NC(C)=O)c(I)c(C(=O)O)c1I [DIATRIZOIC ACID]
[1]
  Hepatotoxicity (cirrhosis): 0
[2]
  Hepatotoxicity (moderate): 1
[3]
  Hepatotoxicity (chronic liver disease): 0
[4]
  Hepatotoxicity (severe hepatitis): 0
[5]
  Hepatotoxicity (moderate): 0%
[6]
  Hepatotoxicity (malignant tumour): 0
[7]
  Hepatotoxicity (choleostasis): 0
[8]
  Hepatotoxicity (acute): 0
[9]
  Hepatotoxicity (association with vascular disease): 0
[10]
  Hepatotoxicity (benign tumour): 0
[11]
  Hepatotoxicity (acute): 0%
[12]
  Hepatotoxicity (granulomatous hepatitis): 0
[13]
  Hepatotoxicity (steatosis): 0
[14]
  Hepatotoxicity (cytolytic): 0

## CCOC(=O)NC1=C(N2CC2)C(=O)C(NC(=O)OCC)=C(N2CC2)C1=O [DIAZIQUONE]
[1]
  Hepatotoxicity (cirrhosis): 0
[2]
  Hepatotoxicity (moderate): 5
[3]
  Hepatotoxicity (chronic liver disease): 0
[4]
  Hepatotoxicity (severe hepatitis): 0
[5]
  Hepatotoxicity (moderate): 50%
[6]
  Hepatotoxicity (malignant tumour): 0
[7]
  Hepatotoxicity (choleostasis): 0
[8]
  Hepatotoxicity (acute): 0
[9]
  Hepatotoxicity (association with vascular disease): 0
[10]
  Hepatotoxicity (benign tumour): 0
[11]
  Hepatotoxicity (acute): 0%
[12]
  Hepatotoxicity (granulomatous hepatitis): 0
[13]
  Hepatotoxicity (steatosis): 0
[14]
  Hepatotoxicity (cytolytic): 0

## Oc1ccc(Cl)cc1Cc1cc(Cl)ccc1O [DICHLOROPHEN]
[1]
  Hepatotoxicity (cirrhosis): 0
[2]
  Hepatotoxicity (moderate): 0
[3]
  Hepatotoxicity (chronic liver disease): 0
[4]
  Hepatotoxicity (severe hepatitis): 0
[5]
  Hepatotoxicity (moderate): 0%
[6]
  Hepatotoxicity (malignant tumour): 0
[7]
  Hepatotoxicity (choleostasis): 1
[8]
  Hepatotoxicity (acute): 2
[9]
  Hepatotoxicity (association with vascular disease): 0
[10]
  Hepatotoxicity (benign tumour): 0
[11]
  Hepatotoxicity (acute): 0%
[12]
  Hepatotoxicity (granulomatous hepatitis): 0
[13]
  Hepatotoxicity (steatosis): 0
[14]
  Hepatotoxicity (cytolytic): 2
